Measurements taken from ChEMBL document CHEMBL4308841, “Synthesis, in vitro antiproliferative activity, and kinase inhibitory effects of pyrazole-containing diarylureas and diarylamides” (Eur J Med Chem, 2018).

What was measured:
OVCAR-8 = test: Growth inhibition of human OVCAR8 cells assessed as cell growth at 10 uM incubated for 48 hrs by sulforhodamine B assay relative to control; type: functional; settings: OVCAR-8, 48 h, read-out: Activity
NCI-H522 = test: Growth inhibition of human NCI-H522 cells incubated for 48 hrs by sulforhodamine B assay; type: functional, cell-based; settings: NCI-H522, 48 h
DU-145 = test: Growth inhibition of human DU145 cells assessed as cell growth at 10 uM incubated for 48 hrs by sulforhodamine B assay relative to control; type: functional; settings: DU-145, 48 h, read-out: Activity
UACC-62 = test: Growth inhibition of human UACC62 cells assessed as cell growth at 0.01 uM incubated for 48 hrs by sulforhodamine B assay relative to control; type: functional; settings: UACC-62, 48 h, read-out: Activity
MDA-MB-435 = test: Growth inhibition of human MDA-MB-435 cells assessed as cell growth at 100 uM incubated for 48 hrs by sulforhodamine B assay relative to control; type: functional; settings: MDA-MB-435, 48 h, read-out: Activity
UO-31 [1] = test: Growth inhibition of human UO31 cells assessed as cell growth at 0.01 uM incubated for 48 hrs by sulforhodamine B assay relative to control; type: functional; settings: UO-31, 48 h, read-out: Activity
A498 = test: Growth inhibition of human A498 cells assessed as cell growth at 10 uM incubated for 48 hrs by sulforhodamine B assay relative to control; type: functional; settings: A498, 48 h, read-out: Activity
NCI-H322M = test: Growth inhibition of human NCI-H322M cells assessed as cell growth at 10 uM incubated for 48 hrs by sulforhodamine B assay relative to control; type: functional; settings: read-out: Activity
SF-268 = test: Growth inhibition of human SF268 cells assessed as cell growth at 0.1 uM incubated for 48 hrs by sulforhodamine B assay relative to control; type: functional; settings: SF-268, 48 h, read-out: Activity
PC-3 = test: Growth inhibition of human PC3 cells assessed as cell growth at 10 uM incubated for 48 hrs by sulforhodamine B assay relative to control; type: functional; settings: PC-3, 48 h, read-out: Activity
786-0 = test: Growth inhibition of human 786-0 cells assessed as cell growth at 10 uM incubated for 48 hrs by sulforhodamine B assay relative to control; type: functional; settings: 786-0, 48 h, read-out: Activity
HCT-116 [2] = test: Growth inhibition of human HCT116 cells assessed as cell growth at 0.01 uM incubated for 48 hrs by sulforhodamine B assay relative to control; type: functional; settings: HCT-116, 48 h, read-out: Activity
COLO 205 = test: Growth inhibition of human COLO205 cells assessed as cell growth at 10 uM incubated for 48 hrs by sulforhodamine B assay relative to control; type: functional; settings: COLO 205, 48 h, read-out: Activity
Malme-3M = test: Growth inhibition of human MALME-3M cells assessed as cell growth at 10 uM incubated for 48 hrs by sulforhodamine B assay relative to control; type: functional; settings: read-out: Activity
T47D = test: Growth inhibition of human T47D cells incubated for 48 hrs by sulforhodamine B assay; type: functional, cell-based
UO-31 [3] = test: Growth inhibition of human UO31 cells assessed as cell growth at 10 uM incubated for 48 hrs by sulforhodamine B assay relative to control; type: functional; settings: UO-31, 48 h, read-out: Activity
MCF7 = test: Growth inhibition of human MCF7 cells assessed as cell growth at 10 uM incubated for 48 hrs by sulforhodamine B assay relative to control; type: functional; settings: MCF7, 48 h, read-out: Activity
CCRF-CEM = test: Growth inhibition of human CCRF-CEM cells assessed as cell growth at 10 uM incubated for 48 hrs by sulforhodamine B assay relative to control; type: functional; settings: read-out: Activity
SK-MEL-28 = test: Growth inhibition of human SK-MEL-28 cells assessed as cell growth at 10 uM incubated for 48 hrs by sulforhodamine B assay relative to control; type: functional; settings: SK-MEL-28, 48 h, read-out: Activity
MOLT-4 = test: Growth inhibition of human MOLT4 cells assessed as cell growth at 10 uM incubated for 48 hrs by sulforhodamine B assay relative to control; type: functional; settings: MOLT-4, 48 h, read-out: Activity
HCT-15 = test: Growth inhibition of human HCT15 cells assessed as cell growth at 10 uM incubated for 48 hrs by sulforhodamine B assay relative to control; type: functional; settings: HCT-15, 48 h, read-out: Activity
Hs-578T = test: Growth inhibition of human Hs578T cells assessed as cell growth at 0.1 uM incubated for 48 hrs by sulforhodamine B assay relative to control; type: functional; settings: read-out: Activity
SK-MEL-5 = test: Growth inhibition of human SK-MEL-5 cells assessed as cell growth at 10 uM incubated for 48 hrs by sulforhodamine B assay relative to control; type: functional; settings: SK-MEL-5, 48 h, read-out: Activity
UACC-257 = test: Growth inhibition of human UACC257 cells assessed as cell growth at 10 uM incubated for 48 hrs by sulforhodamine B assay relative to control; type: functional; settings: UACC-257, 48 h, read-out: Activity
A549 = test: Growth inhibition of human A549/ATCC cells assessed as cell growth at 10 uM incubated for 48 hrs by sulforhodamine B assay relative to control; type: functional; settings: A549, 48 h, read-out: Activity
NCI-H23 = test: Growth inhibition of human NCI-H23 cells assessed as cell growth at 10 uM incubated for 48 hrs by sulforhodamine B assay relative to control; type: functional; settings: NCI-H23, 48 h, read-out: Activity
SNB-75 = test: Growth inhibition of human SNB75 cells assessed as cell growth at 0.1 uM incubated for 48 hrs by sulforhodamine B assay relative to control; type: functional; settings: SNB-75, 48 h, read-out: Activity
NCI/ADR-RES = test: Growth inhibition of human NCI/ADR-RES cells assessed as cell growth at 10 uM incubated for 48 hrs by sulforhodamine B assay relative to control; type: functional; settings: read-out: Activity
SR = test: Growth inhibition of human SR cells incubated for 48 hrs by sulforhodamine B assay; type: functional, cell-based
HOP-62 = test: Growth inhibition of human HOP62 cells assessed as cell growth at 10 uM incubated for 48 hrs by sulforhodamine B assay relative to control; type: functional; settings: HOP-62, 48 h, read-out: Activity
SN12C = test: Growth inhibition of human SN12C cells assessed as cell growth at 10 uM incubated for 48 hrs by sulforhodamine B assay relative to control; type: functional; settings: read-out: Activity
HCT-116 [4] = test: Growth inhibition of human HCT116 cells assessed as cell growth at 0.1 uM incubated for 48 hrs by sulforhodamine B assay relative to control; type: functional; settings: HCT-116, 48 h, read-out: Activity
[5] = read-out: LC50 (the source's name)
[6] = read-out: pLC50 (the source's name) (converted)

Structure (SMILES): O=C(Nc1cccc(-n2cc(-c3ccncc3)c(-c3cc(O)cc(Cl)c3)n2)c1)Nc1ccc(Cl)c(C(F)(F)F)c1
- growth at 10 µM (OVCAR-8): 3.69%
- GI50 (NCI-H522; read-out: GI50): 1.32 µM
- CC50 (NCI-H522; [5]): 19 µM
- TGI (NCI-H522; read-out: TGI): 44.8 µM
- GI50 (NCI-H522; read-out: pGI50 (converted)): 1.32 µM
- CC50 (NCI-H522; [6]): 19.1 µM
- TGI (NCI-H522; read-out: pTGI (converted)): 4.47 µM
- growth at 10 µM (DU-145): 18.7%
- growth at 0.01 µM (UACC-62): 104%
- growth at 100 µM (MDA-MB-435): -93%
- growth at 0.01 µM (UO-31 [1]): 93%
- growth at 10 µM (A498): 21.5%
- growth at 10 µM (NCI-H322M): 45%
- growth at 0.1 µM (SF-268): 93%
- growth at 10 µM (PC-3): 5.34%
- growth at 10 µM (786-0): -29.8%
- growth at 0.01 µM (HCT-116 [2]): 104%
- growth at 10 µM (COLO 205): 63.4%
- growth at 10 µM (Malme-3M): -24.9%
- GI50 (T47D; read-out: GI50): 2.44 µM
- CC50 (T47D; [5]): 91.5 µM
- TGI (T47D; read-out: TGI): 92.7 µM
- GI50 (T47D; read-out: pGI50 (converted)): 2.45 µM
- CC50 (T47D; [6]): 91.2 µM
- TGI (T47D; read-out: pTGI (converted)): 9.33 µM
- growth at 10 µM (UO-31 [3]): 18.5%
- growth at 10 µM (MCF7): 13.4%
- growth at 10 µM (CCRF-CEM): 9.31%
- growth at 10 µM (SK-MEL-28): -13.5%
- growth at 10 µM (MOLT-4): -18%
- growth at 10 µM (HCT-15): 5.79%
- growth at 0.1 µM (Hs-578T): 94%
- growth at 10 µM (SK-MEL-5): 23.8%
- growth at 10 µM (UACC-257): -40%
- growth at 10 µM (A549): 8.81%
- growth at 10 µM (NCI-H23): 10.5%
- growth at 0.1 µM (SNB-75): 88%
- growth at 10 µM (NCI/ADR-RES): 41.5%
- GI50 (SR; read-out: GI50): 2.01 µM
- CC50 (SR; [5]): > 100 µM
- TGI (SR; read-out: TGI): 51 µM
- GI50 (SR; read-out: pGI50 (converted)): 2 µM
- CC50 (SR; [6]): > 100 µM
- TGI (SR; read-out: pTGI (converted)): 5.13 µM
- growth at 10 µM (HOP-62): 8.99%
- growth at 10 µM (SN12C): 34.6%
- growth at 0.1 µM (HCT-116 [4]): 103%

Structure (SMILES): COc1cc(Cl)cc(-c2nn(-c3cccc(NC(=O)Nc4cc(C(F)(F)F)cc(C(F)(F)F)c4)c3)cc2-c2ccncc2)c1
- growth at 10 µM (OVCAR-8): -2.46%
- IC50 (NCI-H522): 0.35 µM
- GI50 (NCI-H522; read-out: GI50): 0.353 µM
- TGI (NCI-H522; read-out: TGI): 1.76 µM
- GI50 (NCI-H522; read-out: pGI50 (converted)): 0.355 µM
- CC50 (NCI-H522; [6]): 8.91 µM
- TGI (NCI-H522; read-out: pTGI (converted)): 1.78 µM
- growth at 10 µM (DU-145): 13.1%
- growth at 0.01 µM (UACC-62): 96%
- growth at 100 µM (MDA-MB-435): -81%
- growth at 0.01 µM (UO-31 [1]): 79%
- growth at 10 µM (A498): -21.6%
- growth at 10 µM (NCI-H322M): 11%
- growth at 0.1 µM (SF-268): 99%
- growth at 10 µM (PC-3): -6.27%
- growth at 10 µM (786-0): -26.9%
- growth at 0.01 µM (HCT-116 [2]): 102%
- growth at 10 µM (COLO 205): -64%
- growth at 10 µM (Malme-3M): -19.2%
- IC50 (T47D): 0.39 µM
- GI50 (T47D; read-out: GI50): 0.39 µM
- CC50 (T47D; [5]): > 100 µM
- TGI (T47D; read-out: TGI): 4.16 µM
- GI50 (T47D; read-out: pGI50 (converted)): 0.389 µM
- CC50 (T47D; [6]): > 100 µM
- TGI (T47D; read-out: pTGI (converted)): 4.17 µM
- growth at 10 µM (UO-31 [3]): -0.18%
- growth at 10 µM (MCF7): 3.81%
- growth at 10 µM (CCRF-CEM): -22%
- growth at 10 µM (SK-MEL-28): 6.55%
- growth at 10 µM (MOLT-4): -24.6%
- growth at 10 µM (HCT-15): 6.21%
- growth at 0.1 µM (Hs-578T): 95%
- growth at 10 µM (SK-MEL-5): -79.4%
- growth at 10 µM (UACC-257): -25.6%
- growth at 10 µM (A549): 5.14%
- growth at 10 µM (NCI-H23): -6.14%
- growth at 0.1 µM (SNB-75): 74%
- growth at 10 µM (NCI/ADR-RES): 2.37%
- IC50 (SR): 0.45 µM
- GI50 (SR; read-out: GI50): 0.452 µM
- CC50 (SR; [5]): > 100 µM
- TGI (SR; read-out: TGI): 3.31 µM
- GI50 (SR; read-out: pGI50 (converted)): 0.447 µM
- CC50 (SR; [6]): > 100 µM
- TGI (SR; read-out: pTGI (converted)): 3.31 µM
- growth at 10 µM (HOP-62): -41%
- growth at 10 µM (SN12C): 9.32%
- growth at 0.1 µM (HCT-116 [4]): 97%
